Data from patent US20240216444A1, “DESIGNED BACTERIAL COMPOSITIONS” (Seres Therapeutics, Inc., priority 2015, published 2024).

What was measured:
[1] = Indole spot test of supernatants on paper soaked with Indole Reagent; details: 4 μL spotted on paper soaked with Indole Reagent
[2] = system: HDAC enzymes (HeLa nuclear extract); assay: HDAC-Glo I/II assay with serial dilutions of SCFAs; format: biochemical; details: for HDAC inhibition activity at the highest tested concentration: 3.75 mM
Experimental: For this experiment, the HeLa nuclear extract provided in the kit was used as the source of HDAC enzymes. […] In this assay, deacetylation of the provided substrate by HDACs results in a luminescence signal that is detected with a suitable plate reader (Spectramax m5). HDAC inhibition decreases the luminescence signal compared to the no inhibitor control. The experiment was carried out according to the manufacturer's instructions as follows: 50 μL of HeLa nuclear extract diluted 1:3000 in assay buffer was mixed with 50 μL of inhibitor solution (serial dilutions of SCFAs in assay buffer) and incubated for 30 minutes. 100 μL of developer solution were added to each well, and luminescence was measured after 45 minutes of incubation at room temperature.

[3] = system: 7α-dehydroxylation of cholic acid and chenodeoxycholic acid; assay: LC-MS screen for 7α-dehydroxylation (7α-OH) activity; format: biochemical; details: LC-MS
[4] = system: HSDH activity (7-, 3- or 12-hydroxyl groups) on cholic, chenodeoxycholic, deoxycholic and lithocholic acid; assay: LC-MS screen for hydroxysteroid dehydrogenase (HSDH) activity; format: biochemical; details: LC-MS
[5] = system: C. difficile carbon sources; assay: Carbon source utilization, 87 carbon sources in three base media, OD600 and acid production (Example 3B); format: cell-based; design: key: “+” and “w” refer to “positive” and “weak” utilization of the carbon source, respectively; “+” and “w” refer to “positive” and “weak” utilization of the carbon source, respectively; details: for utilization of carbon source NAG: NAG (N-acetylglucosamine)
From the text: Three C. difficile strains and 12 non-C. difficile bacterial strains were profiled using a panel of carbon sources. As used herein, unless otherwise indicated, carbon sources includes all sources tested as growth substrates in the experiments herein. The three C. difficile strains were Clostridium difficile ATCC 9689, Clostridium difficile ATCC 43593, and Clostridium difficile ATCC 43255, all of which are available from the American Type Culture Collection (ATCC).
Growth of the strains was tested on 87 different carbon sources in a 96-well plate format. The panel contained 34 carbon sources reported to be utilized by C. difficile in the literature (Hafiz and Oakley. 1976 J Med Microbiol 9:129-36; Wilson and Perini. 1988 Infection and Immunity 56:2610-14; Bergey and Holt. Bergey's Manual of Determinative Bacteriology. Baltimore: Williams & Wilkins, 1994; Sebaihia et al. 2006 Nature Genetics 38:779-786) including amino acids, mono-, di-, tri- and polysaccharides, glucoside and sugar alcohols. Carbon sources were added at 0.5% into three different base media (Base medium 1 SSNC composition: beef extract 1 g/L, yeast extract 2 g/L, bacto soytone 6 g/L, NaCl 4 g/L, KH2PO4 5.44 g/L, MgSO4 2 mM, CaCl2 1 mM, MnCl2 0.1 mM, cysteine hydrochloride 0.25 g/L, hemin 10 mg/L, menadione 1 mg/L, MOPS 6.3 g/L, pH 7; Base medium 2 SPOSCR composition: beef extract 1 g/L, yeast extract 2 g/L, bacto soytone 6 g/L, NaCl 4 g/L, KH2PO4 5.44 g/L, MgSO4 2 mM, CaCl2) 1 mM, MnCl2 0.1 mM, cysteine hydrochloride 0.25 g/L, hemin 10 mg/L, menadione 1 mg/L, MOPS 8.4 g/L, NaHCO3 0.4%, pH 7; Base medium 3 YCFA: casitone 10 g/L, yeast extract 2.5 g/L, cysteine hydrochloride 1 g/L, hemin 10 mg/L, ATCC vitamin solution 10 mL/L, ATCC trace element solution 10 mL/L, K2HPO4 0.45 g/L, KH2PO4 0.45 g/L, (NH4)2SO4 0.9 g/L, MgSO4×7H2O 90 mg/L, CaCl2) 90 mg/L, acetic acid 33 mM, propionic acid 9 mM, isobutyric acid 1 mM, isovaleric acid 1 mM, valeric acid 1 mM, pH 7).
Positive growth was scored by measuring optical density at 600 nm and comparing it to growth in base medium without an added carbon source. For two, base media acid production was also scored by measuring optical density at 558 nm of pH-indicator phenol red mixed with spent medium from each culture.

[6] = system: bile salt hydrolase (BSH) activity on conjugated bile acids; assay: LC-MS screen for bile salt hydrolase (BSH) activity; details: for BSH gCA: substrate gCA; for BSH gCDCA: substrate gCDCA; for BSH t-aMCA: substrate t-aMCA; for BSH t-bMCA: substrate t-bMCA; for BSH tCA: substrate tCA; for BSH tCDCA: substrate tCDCA
Experimental: To conduct the assay, briefly, bacteria were grown on permissive agar media plates for 24 to 48 hours to generate sufficient biomass to carry out assays. The bacterial lawns were resuspended in PBS to create a homogenous suspension that was then used for the BSH assay. To assay for BSH activity, bacterial suspensions were incubated with two separate mixtures of four distinct conjugated bile acids, each at concentration of 150 μg/ml, for 4 hours at 37° C. under anaerobic conditions. The reaction mixture was then extracted with an equal volume of acetonitrile, spun down to pellet bacteria and the supernatant filtered through a 0.2 μM filter to generate a sample for LC-MS analysis. Bile acids were determined using an Agilent 1260 HPLC coupled to a Bruker Compact qTOF MS. Samples were run on a bidentate C18 column using an acetonitrile:water buffer system to separate bile acids which were then ionized in negative mode and identified using a qTOF-MS. BSH activity was determined by the formation of deconjugated bile acid products that were verified by comparison to known standards and quantified, if necessary, using standard curves.

[7] = system: HDAC enzymes (HeLa nuclear extract); assay: HDAC inhibition activity in supernatants of cultures grown in different carbon sources; details: 25% HDAC inhibition as cut off
Experimental: To determine whether the HDAC inhibition was affected by the type and level of carbon source available to a bacterial species, HDAC inhibition by supernatants derived from a selection of bacterial species used in DBCs was determined. In these experiments, bacteria were grown in a variety of carbon sources including mono-, di-, polysaccharides, and porcine mucine. Briefly, 600 μL bacterial cultures in peptone/yeast extract medium (PY) supplemented with 0.5% of the selected carbon sources were inoculated in 96 deep well plates, grown for 4 days, then the microbial cells were pelleted by centrifugation, and 15 μL of the culture medium (supernatant) was used for the HDAC assay with HeLa nuclear extract as described above. Because HDAC activity is reduced at low pH (Latham et al. 2012 Nucl Acid Res 40:4794-803) and the microbial cultures had pH as low as 5, to ensure that the final pH of the assay was not reduced by the addition of supernatant, 10 μL of a 1M Tris pH 8 solution was added per well to bring the final Tris buffer concentration to 75 mM. Thus, assays were performed with 15 μL supernatant, 10 μL 1M Tris pH 8, 25 μL of assay buffer and 50 μL of diluted HeLa nuclear extract, which were preincubated for 30 minutes prior to the addition of developing reagent. Luminescence was measured after 30 minutes.

[8] = SCFA profile of bacterial culture supernatants by GC-MS; details: GC-MS; fucose as carbon source
From the text: The same bacterial culture supernatants used for HDAC inhibition assays described supra were submitted to GC-MS analysis to determine which SCFAs underlie the observed inhibition of HDAC. The method employed (MSOmics, Denmark) measures formate, acetate, propionate, butyrate, isobutyrate (2-methyl-propionate), isovalerate (3-methyl-butyrate), valerate (pentanoate), 4-methyl-pentanoate, caproate (hexanoate), and heptanoate. […] Numbers in Table 11 indicate detected SCFA concentration. B=butyrate; P=propionate; IB=isobutyrate, and IV=isovalerate.

Cc1c[nH]c2ccccc12 [3-methyl-indole]
colour in indole spot test [1]: purple spots

c1ccc2[nH]ccc2c1 [Indole, indole]
colour in indole spot test [1]: light blue color

CC(O)C(=O)O (stereo not shown) [Lactate]
HDAC inhibition activity at the highest tested concentration [2]: minimal HDAC inhibition activity

CC(=O)O [acetate]
HDAC inhibition activity at the highest tested concentration [2]: minimal HDAC inhibition activity

O=C(O)CCCc1c[nH]c2ccccc12 [indole-3-butyric acid]
colour in indole spot test [1]: purple spots

O=C(O)CCc1c[nH]c2ccccc12 [indole-3-propionic acid]
colour in indole spot test [1]: purple spots

CCC(=O)O [propionate]
IC50 ([2]; HeLa nuclear extract, HDAC-Glo I/II, read-out: HDAC inhibition IC50): 2400 µM

NCCc1c[nH]c2ccccc12 [tryptamine]
colour in indole spot test [1]: purple spots

Blautia producta
7a Dehydrox CA ([3]; substrate CA): −
7a Dehydrox CDCA ([3]; substrate CDCA): −
HSDH 3a [4]: −
HSDH 7a [4]: −
HSDH 12a [4]: −
utilization of carbon source Apple pectin [5]: +
utilization of carbon source Citrus pectin [5]: +
utilization of carbon source NAG [5]: +
utilization of carbon source alanine ([5]; alanine): +
utilization of carbon source asparagine ([5]; asparagine): +
utilization of carbon source cellobiose [5]: +
utilization of carbon source cysteine [5]: w
utilization of carbon source dulcitol ([5]; dulcitol): +
utilization of carbon source esculin [5]: +
utilization of carbon source formate ([5]; formate): +
utilization of carbon source fructose [5]: +
utilization of carbon source glucose [5]: +
utilization of carbon source glutamine [5]: w
utilization of carbon source glycochenodeoxycholate ([5]; glycochenodeoxycholate): w
utilization of carbon source mannitol ([5]; mannitol): +
utilization of carbon source mannose [5]: +
utilization of carbon source melezitose [5]: +
utilization of carbon source oxalate [5]: w
utilization of carbon source polygalacturonate ([5]; polygalacturonate): +
utilization of carbon source rhamnose [5]: +
utilization of carbon source ribose [5]: +
utilization of carbon source salicin [5]: +
utilization of carbon source serine [5]: +
utilization of carbon source sialic acid [5]: +
utilization of carbon source sorbitol ([5]; sorbitol): +
utilization of carbon source sucrose [5]: +
utilization of carbon source taurochenodeoxycholate ([5]; taurochenodeoxycholate): w
utilization of carbon source threonine [5]: w
utilization of carbon source trehalose [5]: +
utilization of carbon source xylitol ([5]; xylitol): +
utilization of carbon source xylose [5]: +
BSH gCA [6]: −
BSH gCDCA [6]: −
BSH t-aMCA [6]: −
BSH t-bMCA [6]: −
BSH tCA [6]: −
BSH tCDCA [6]: −

Clostridium bolteae
7a Dehydrox CA ([3]; substrate CA): −
7a Dehydrox CDCA ([3]; substrate CDCA): −
HSDH 3a [4]: + (‘+’ indicates greater than 50-fold increase in levels of product bile acid, suggesting strong activity)
HSDH 7a [4]: −
HSDH 12a [4]: −
HDAC inhibition when alternative nutrient sources are tested [7]: positive
utilization of carbon source Citrus pectin [5]: +
utilization of carbon source NAG [5]: +
utilization of carbon source cysteine [5]: w
utilization of carbon source fructose [5]: +
utilization of carbon source glucose [5]: +
utilization of carbon source mannose [5]: +
utilization of carbon source melezitose [5]: +
utilization of carbon source oxalate [5]: +
utilization of carbon source propanediol ([5]; propanediol): +
utilization of carbon source rhamnose [5]: +
utilization of carbon source ribose [5]: +
utilization of carbon source serine [5]: w
utilization of carbon source sialic acid [5]: +
utilization of carbon source sucrose [5]: +
utilization of carbon source trehalose [5]: +
utilization of carbon source tryptophan ([5]; tryptophan): w
utilization of carbon source xylose [5]: +
BSH gCA [6]: + (‘+’ indicates greater than 50-fold increase in levels of product bile acid, suggesting strong activity)
BSH gCDCA [6]: + (‘+’ indicates greater than 50-fold increase in levels of product bile acid, suggesting strong activity)
BSH t-aMCA [6]: + (‘+’ indicates greater than 50-fold increase in levels of product bile acid, suggesting strong activity)
BSH t-bMCA [6]: + (‘+’ indicates greater than 50-fold increase in levels of product bile acid, suggesting strong activity)
BSH tCA [6]: + (‘+’ indicates greater than 50-fold increase in levels of product bile acid, suggesting strong activity)
BSH tCDCA [6]: + (‘+’ indicates greater than 50-fold increase in levels of product bile acid, suggesting strong activity)
propionate production [8]: produced propionate but only when supplied with fucose as a carbon source

Clostridium disporicum
7a Dehydrox CA ([3]; substrate CA): −
7a Dehydrox CDCA ([3]; substrate CDCA): −
7a Dehydrox CDCA ([3]; substrate chenodeoxycholic acid): −
7a Dehydrox CA ([3]; substrate cholic acid): −
HSDH 3a [4]: −
HSDH 7a [4]: + (‘+’ indicates greater than 50-fold increase in levels of product bile acid, suggesting strong activity)
HSDH 12a [4]: +/− (‘+/−’ indicates ≤50-fold change in product bile acid levels, suggesting weak activity)
HSDH 3a ([4]; 3a-HSDH): −
HSDH 7a ([4]; 7a-HSDH): + (‘+’ indicates greater than 50-fold increase in levels of product bile acid, suggesting strong activity)
HSDH 12a ([4]; 12a-HSDH): −
HDAC inhibition when alternative nutrient sources are tested [7]: positive
utilization of carbon source Apple pectin [5]: w
utilization of carbon source Citrus pectin [5]: +
utilization of carbon source NAG [5]: +
utilization of carbon source arbutin ([5]; arbutin): +
utilization of carbon source cellobiose [5]: +
utilization of carbon source cyclodextrin ([5]; cyclodextrin): +
utilization of carbon source cysteine [5]: w
utilization of carbon source esculin [5]: +
utilization of carbon source fructose [5]: +
utilization of carbon source glucose [5]: +
utilization of carbon source glutamine [5]: w
utilization of carbon source glycogen ([5]; glycogen): +
utilization of carbon source mannose [5]: +
utilization of carbon source oxalate [5]: w
utilization of carbon source salicin [5]: +
utilization of carbon source serine [5]: w
utilization of carbon source starch ([5]; starch): +
utilization of carbon source sucrose [5]: +
utilization of carbon source threonine [5]: w
utilization of carbon source trehalose [5]: +
BSH gCA [6]: −
BSH gCDCA [6]: +/− (‘+/−’ indicates ≤50-fold change in product bile acid levels, suggesting weak activity)
BSH t-aMCA [6]: + (‘+’ indicates greater than 50-fold increase in levels of product bile acid, suggesting strong activity)
BSH t-bMCA [6]: + (‘+’ indicates greater than 50-fold increase in levels of product bile acid, suggesting strong activity)
BSH tCA [6]: +/− (‘+/−’ indicates ≤50-fold change in product bile acid levels, suggesting weak activity)
BSH tCDCA [6]: + (‘+’ indicates greater than 50-fold increase in levels of product bile acid, suggesting strong activity)
propionate production [8]: produced propionate but only when supplied with fucose as a carbon source
